Measured values taken from publication PMC13162264, “Chemoproteomic Elucidation of β‑Lactam Drug Targets in Mycobacterium abscessus” (ACS Infectious Diseases, 2026).
Values after ≈ are worked out from the molar mass of the structure shown.

Tests used:
[1] = tested on: O=C(Cc1cccs1)N[C@@H]1C(=O)N2C(C(=O)O)=C(/C=C/c3ccc([N+](=O)[O-])cc3[N+](=O)[O-])CS[C@H]12; test: purified protein, by the assay type; conditions: other: nitrocefin hydrolysis by MAB_3998 (20 μM), 37 °C
Protocol: (B) Steady-state kinetic parameters for nitrocefin hydrolysis by Ldt4, PbpB, and MAB_3998.
To further characterize our findings, we determined the steady-state kinetic parameters for the hydrolysis of nitrocefin by Ldt4, PbpB, and MAB_3998 (Figure B).
Purified enzyme (Ldt4, 5 μM; PbpB, 20 μM; MAB_3998, 20 μM) or buffer alone was
in a 96-well microplate in 50 mM Tris-Cl pH 8.0 at 4 °C, 150 mM NaCl. Nitrocefin
hydrolysis was monitored at 486 nm on a microplate reader (30 sec intervals, 1-2 hr
duration, 37 °C). For Ldt4 and PbpB, initial rates were calculated from 240-570 sec of
the reaction. For MAB_3998, the initial rates were calculated from 120-1200 sec of the
reaction. The velocity against substrate concentration was fit to a nonlinear regression
assuming Michaelis-Menton steady-state kinetics in GraphPad Prism software.
Calculations were done using technical triplicates from two (MAB_3998) or three (Ldt4,
PbpB) separate experiments. Error is reported as standard deviation.

[2] = tested on: β-lactam targets in Mab 19977 whole-cell lysates; test: β-lactam competition of Mero-sCy5 labeling in whole-cell lysates; type: binding, Mycobacterium abscessus subsp. abscessus; conditions: Mab 19977 lysate; drug 1 mM, then Mero-sCy5 5 μM
[3] = tested on: β-lactam targets in M9510 whole-cell lysates; test: as above; type: binding, Mycobacterium abscessus subsp. massiliense; conditions: drug 1 mM, then Mero-sCy5 5 μM
[4] = human, in vivo; cited from earlier work
[5] = tested on: M. abscessus subsp. abscessus (n = 1344 isolates); design: method as in Hunkins et al.; conditions: ref Hunkins et al.; cited from earlier work
[6] = tested on: M9510 (clinical strain, subsp. massiliense); design: method as in not given; conditions: supplemented Middlebrook 7H9 broth, reported values, ref not given; cited from earlier work
[7] = target: T1, DacB2 (Mycobacteroides abscessus, UniProt B1MDJ1); test: β-lactam IC50 by drug treatment then Bocillin FL labeling, in-gel fluorescence; type: binding, Mycobacterium abscessus
T1 sequence (B1MDJ1 entry or part of it): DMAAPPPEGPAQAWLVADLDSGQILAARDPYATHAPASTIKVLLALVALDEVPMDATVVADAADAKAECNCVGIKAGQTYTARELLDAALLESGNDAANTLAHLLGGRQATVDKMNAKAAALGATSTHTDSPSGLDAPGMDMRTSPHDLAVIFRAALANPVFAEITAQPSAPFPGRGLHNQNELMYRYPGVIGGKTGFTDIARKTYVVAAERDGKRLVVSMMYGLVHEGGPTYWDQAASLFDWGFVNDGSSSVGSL

[8] = tested on: M9510 (clinical strain, subsp. massiliense); test: Reported MIC in supplemented Middlebrook 7H9 broth; type: cell-based, Mycobacterium abscessus subsp. massiliense; conditions: from past characterization of M9510, ref not given
[9] = target: PbpB (Mycobacteroides abscessus, UniProt B1MP31); test: β-lactam IC50 by drug treatment then Bocillin FL labeling, in-gel fluorescence; type: binding
[10] = tested on: M. abscessus subsp. massiliense (n = 754 isolates); design: method as in Hunkins et al.; conditions: ref Hunkins et al.; cited from earlier work
[11] = target: Ldt4, PbpB, DacB2, and MAB_4800; test: β-lactam IC50, range over the four enzymes; type: binding, Mycobacterium abscessus
[12] = target: T2, Ldt4 (Mycobacteroides abscessus, UniProt B1MKW1); test: β-lactam IC50 by drug treatment then Bocillin FL labeling, in-gel fluorescence; type: binding, Mycobacterium abscessus
[13] = target: MAB_4800 (Mycobacteroides abscessus, UniProt B1MM83); test: as above; type: binding
Chain of MAB_4800 (B1MM83 entry or part of it): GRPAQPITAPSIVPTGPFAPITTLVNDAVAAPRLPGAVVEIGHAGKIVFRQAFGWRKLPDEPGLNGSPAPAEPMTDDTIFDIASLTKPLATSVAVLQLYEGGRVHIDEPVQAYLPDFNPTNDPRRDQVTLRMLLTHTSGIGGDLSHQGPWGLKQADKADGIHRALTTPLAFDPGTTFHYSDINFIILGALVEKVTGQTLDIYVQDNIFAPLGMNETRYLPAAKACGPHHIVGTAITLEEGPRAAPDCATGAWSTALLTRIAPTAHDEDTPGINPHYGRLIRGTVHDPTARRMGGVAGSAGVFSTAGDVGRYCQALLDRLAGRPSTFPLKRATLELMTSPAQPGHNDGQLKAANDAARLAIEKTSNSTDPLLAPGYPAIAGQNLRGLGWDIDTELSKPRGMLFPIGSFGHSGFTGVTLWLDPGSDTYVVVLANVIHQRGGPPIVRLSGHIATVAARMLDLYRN

[14] = target: MAB_0330 (Mycobacteroides abscessus, UniProt B1MFM9); test: as above; type: binding
Chain of MAB_0330 (B1MFM9 entry or part of it): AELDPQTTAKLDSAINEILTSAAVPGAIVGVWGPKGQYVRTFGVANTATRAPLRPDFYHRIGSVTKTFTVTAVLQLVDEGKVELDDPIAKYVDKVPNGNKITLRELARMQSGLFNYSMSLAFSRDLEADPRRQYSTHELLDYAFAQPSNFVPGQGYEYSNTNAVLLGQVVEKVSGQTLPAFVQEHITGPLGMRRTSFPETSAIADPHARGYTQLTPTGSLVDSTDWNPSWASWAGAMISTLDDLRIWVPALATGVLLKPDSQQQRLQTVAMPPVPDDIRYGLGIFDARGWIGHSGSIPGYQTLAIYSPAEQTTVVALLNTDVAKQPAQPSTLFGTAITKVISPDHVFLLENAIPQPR
Protocol: Adjustment of image brightness and contrast and band intensity quantification was
performed with Fiji. Statistical comparison of mean band intensities between no
treatment and drug-treated enzymes was done using one-way ANOVA with Tukey
multiple comparison test in GraphPad Prism software.
We determined the inhibitory concentration 50 (IC50) of imipenem and cefoxitin for
PbpB, Ldt4, DacB2, and MAB_4800. We measured the IC50 by drug-treatment followed
by Bocillin FL labeling using the method described by Carlson23. Purified enzyme (0.5
μM) was treated with a range of inhibitor concentrations (.01 – 5000 µM) or buffer only
(NT) in 50 mM Tris-Cl (pH 8.0 at 4 °C), 150 mM NaCl for 30 min at 37 °C. Samples
were then incubated with 10 µM Bocillin FL for 30 min at 37 °C. Reactions were
stopped by addition of 1X TCEP SDS-PAGE loading dye and heating (5 min, 75 °C).
Technical duplicates were loaded and resolved on the same gel to standardize
background. Gels were destained of free probe overnight (30% methanol, 10% acetic
acid in water) and scanned using the Cy2 laser/emission filter on an Amersham
Typhoon imager. The experiment was repeated twice for each enzyme.
Mean band intensities were measured in ImageJ by drawing a box tightly around the
band. The inhibitor concentration versus mean band intensity was plotted and fit to a […]
GraphPad Prism software. Final values were calculated by averaging the IC50 across […]

[15] = tested on: Mab 19977 (ATCC 19977, subsp. abscessus); design: method as in not given; conditions: supplemented Middlebrook 7H9 broth, reported values, ref not given; cited from earlier work
[16] = target: T2, Ldt4; test: β-lactam competition of ABP labeling, recombinant enzyme; type: binding, Mycobacterium abscessus; conditions: drug 500 μM, 30 min 37 °C, then 10 μM Mero-sCy5 or Bocillin FL
[17] = target: T1, DacB2; test: as above; conditions: drug 500 μM, 30 min 37 °C, then 10 μM Mero-sCy5 or Bocillin FL
Protocol: Purified protein was incubated with drug or buffer only before labeling with either Mero-sCy5 or Bocillin FL. Samples were then resolved by SDS-PAGE and imaged for quantification.
Purified protein (3 μg) was combined with drug (500 μM) or buffer (no treatment, NT) in 10 mM HEPES pH 7.5 (30 min, 37 °C). Samples were then labeled with 10 μM ABP (Mero-sCy5 or Bocillin FL) for 1 h at 37 °C. Labeled protein was resolved via SDS-PAGE (1 μg/lane) and fluorescent signal was quantified as mean intensity of three independent replicates. Error is reported as standard deviation and statistical significance was determined by one-way ANOVA with Tukey multiple comparisons test.
β-lactam Competition of ABP Labeling
Purified enzymes (3 μg) were incubated with 500 μM imipenem monohydrate (IPM,
MedChemExpress, CAS 74431-23-5), cefoxitin sodium salt (FOX, Sigma-Aldrich, CAS
buffer only in 10 mM HEPES (pH 7.5 ) for 30 min at 37 °C. Samples were then
incubated with 10 μM Mero-sCy5 or Bocillin FL for 60 min at 37 °C. Samples were
denatured with 1X TCEP SDS-PAGE loading dye by heating (10 min, 75 °C). Protein (1
μg/lane) was resolved via SDS-PAGE on 10% Bis-Tris gels (Bio-Rad, 1X XT MES
running buffer). Triplicate samples of each enzyme were prepared independently and

[18] = tested on: recombinant BlaMab; test: β-lactamase activity, nitrocefin hydrolysis; type: biochemical, Mycobacterium abscessus; conditions: data not shown
[19] = tested on: Ldt2; design: method as in not given; conditions: nitrocefin hydrolysis by Mab Ldt2, previously found, ref not given, cited from earlier work
[20] = substrate: O=C(Cc1cccs1)N[C@@H]1C(=O)N2C(C(=O)O)=C(/C=C/c3ccc([N+](=O)[O-])cc3[N+](=O)[O-])CS[C@H]12; test: Steady-state kinetics of nitrocefin hydrolysis; type: biochemical, Mycobacterium abscessus; conditions: 37 °C
[21] = other: nitrocefin hydrolysis by PbpB (20 μM)
[22] = other: nitrocefin hydrolysis by Ldt4 (5 μM)

With “MAB_3998 (Mycobacteroides abscessus ATCC 19977)” as the molecule, how does the Km [1] read?
Its Km is 150 ± 9 µM.

And the kcat [1]?
Its kcat is 0.0022 ± 6.1e^-5 s^-1.

What about the kcat/Km [1] of the same molecule?
Its kcat/Km is 14 M⁻¹ s⁻¹.

For C[C@H]1[C@H](NC(=O)/C(=N\OC(C)(C)C(=O)O)c2csc(N)n2)C(=O)N1S(=O)(=O)O [AZT, aztreonam], which “inhibition of Mero-sCy5 labeling of targets in lysate” value [2] is on record?
Its value is “largely ineffective inhibitors”.

What about the “inhibition of Mero-sCy5 labeling of targets in lysate” value [3] of the same molecule?
Its value is “largely ineffective inhibitors”.

What does the source list for C[C@@H](O)[C@H]1C(=O)N2C(C(=O)O)=C(SCCN=CN)C[C@H]12 [IPM, imipenem]?
fCss,avg (median unbound average steady-state plasma concentration) [4]: 12.2 µg/mL; MIC90 [5]: 16 µg/mL (≈ 53.4 µM); MIC [6]: 24 µg/mL (≈ 80.2 µM); inhibition of Mero-sCy5 labeling of targets in lysate [2]: abolished ABP labeling; IC50 [7]: 2 ± 1 µM; increased MIC in M9510 relative to 19977 [8]: 3 fold; IC50 [9]: 4 ± 2 µM; fold more potent inhibition of PbpB than FOX ([9]; IC50 comparison IPM vs FOX): 3 fold; MIC90 [10]: 16 µg/mL (≈ 53.4 µM); IC50 for the four enzymes, in mass units [11]: 0.5 to 2 µg/mL; inhibition of Mero-sCy5 labeling of targets in lysate [3]: abolished ABP labeling; IC50 ([12]; IC50 (best-fit value, example analysis Figure S8), Ldt4 with IPM, one experiment, 95% CI 1.796 to 11.10, R squared 0.8570): 5.18 µM; IC50 ([12]; IC50 Ldt4, 0.5 μM enzyme, drug 30 min 37 °C, then 10 µM Bocillin FL): 4 ± 2 µM; HillSlope (best-fit value, example analysis Figure S8) ([12]; Ldt4 with IPM, one experiment): -1.416; IC50 [13]: 7 ± 3 µM; IC50 [14]: 170 µM; MIC [15]: 8 µg/mL (≈ 26.7 µM)

For NC(=O)[C@@H]1CC[C@@H]2CN1C(=O)N2OS(=O)(=O)O [AVI, avibactam], which “inhibition of fluorescent ABP binding to Ldt4” value [16] is on record?
The value was “enhancement of Ldt4 binding by Mero-sCy5”.

And the “inhibition of fluorescent ABP binding to DacB2” value [17]?
The value was “intermediate inhibition”.

What does the source list for O=C(Cc1cccs1)N[C@@H]1C(=O)N2C(C(=O)O)=C(/C=C/c3ccc([N+](=O)[O-])cc3[N+](=O)[O-])CS[C@H]12 [nitrocefin]?
nitrocefin hydrolysis by BlaMab [18]: complete nitrocefin hydrolysis near instantaneously; maximal rate of hydrolysis [19]: 0.33 µM/s; Km ([19]; read-out: affinity for nitrocefin (Km)): 328 µM

What does the source list for CC1(C)S[C@@H]2[C@H](NC(=O)[C@H](N)c3ccc(O)cc3)C(=O)N2[C@H]1C(=O)O [amoxicillin]?
MIC [6]: > 256 µg/mL; MIC [15]: > 256 µg/mL

Which MIC [6] does the source give for CC(C)(O/N=C(\C(=O)N[C@@H]1C(=O)N2C(C(=O)[O-])=C(C[n+]3ccccc3)CS[C@H]12)c1csc(N)n1)C(=O)O [ceftazidime] here?
Its MIC is greater than 256 µg/mL.

And the MIC [15]?
Its MIC is greater than 256 µg/mL.

B1: PbpB (Mycobacteroides abscessus ATCC 19977) (protein)
chain: GPRAAGLRAEASGQLKVTETEKALRGTIVDRAGNKLAFTIEARALTFQPKKIREQLNKAWEKSQEILKDPGKSDADKAAAAKIRSVEPERRLQDIANGVSAKLGNKPDAKSLLKKIRSDDTFAYLARSVDPGIAAQITKEFPEVGAERQDIRQYPGGSLAANIVGSIDWEGYGLLGLEDSLDSALAGKDGSLTYDRGSDGAVIPGSYRDRHDAVNGSTVELTLDNDIQFYVQQQVQQAKDLSEARSVSAVVLDSKTGEVLAMANDNTFDPSQNLGKQGNREMGNLSVSSPFEPGSVNKVITASAVIENDLSNPDEVLQVPGSINMGGVTVRDAWPHGTVPFTTTGVFGKSSNVGTLMLAQRVGPERFMDLVDKFGLGQRTGVGLPGESAGIVPPIEQWSGSTFSNLPIGQGLSMTLLQMAGMYQAIANDGVRIPPRIVKSITAPDGSRKEEPRPEPVQVVNAGTARTVRNMLRAVLQPDARQIQNGTGASGAVDGYQLSGKTGTAQQINPACGCYFDDVYWITFAGIATTDDPRYVIGIEMNAPKRGSDGSPHMTAAPLFHNIASWLMRRENVPLSPDPGPPLILQAT
With B1 as the molecule, how does the Km [20, 21] read?
The Km was 220 ± 27 µM.

What about the kcat [20, 21] of the same molecule?
Its kcat is 0.00075 ± 3.1e^-5 s^-1.

What about the kcat/Km [20, 21] of the same molecule?
The kcat/Km was 3.4 M⁻¹ s⁻¹.

B2: Ldt4 (Mycobacteroides abscessus ATCC 19977) (protein)
chain: GDVPPLPVGLLKNSPNNGDVVGVAQPITIVFAAPVTDKKAAEAAVKITTSKPAPGYFYWYTDQQLRWKPTQFWPANTDVNVNAGGTKWSFKVGDAFVSTVDDATYTMTVTRNGVVERTMPISMGKHDKKHETKNGTYYVSEKFQKMVMDSSTYGVPVNSAEGYKLDVYWATRLSNSGIFVHAAPWSVGAQGKSDTSHGCINVNTDNATWFFNQSHPGDPVIVKNSPGGPYKDYDGYDDWQRF
With B2 as the molecule, how does the Km [20, 22] read?
Its Km is 65 ± 7 µM.

And the kcat [20, 22]?
Its kcat is 0.0042 ± 2.0e^-4 s^-1.

And the kcat/Km [20, 22]?
The kcat/Km was 65 M⁻¹ s⁻¹.
